From patent US20210323918A1, “COMPOSITIONS AND METHODS FOR SUPPRESSING AND/OR TREATING A GROWTH RELATED DISEASE AND/OR A CLINICAL CONDITION THEREOF” (CK Biotech Inc., priority 2018, published 2021)

What was measured:
[1] = tested on: Tibial organ cultures (E15.5); assay: Tibial organ culture (ex vivo); parameters: species or system mice; details: 100 nM for 6 days
Method: Tibial organ culture. Tibiae were isolated from embryonic day 15.5 (e15.5) mice and cultured for 6 days in phenol red-free a-MEM (Gibco) containing ascorbic acid, β-glycerophosphate, BSA, L-glutamine, and penicillin-streptomycin, as previously described (Gillespie et al, 2011). After dissection, tibiae were incubated in medium overnight and then treated with E2 (Sigma-Aldrich). Media and reagents were changed every 48 hours. Tibial images were captured using a SMZ-745T microscope (Nikon). Tibial length was measured prior to treatment and after 6 days in culture. The samples were then prepared for paraffin embedding, sectioned, and analyzed by H&E and IHC staining.

GSK3β (human) = GSK3β (human) (Homo sapiens, UniProt P49841); assay: GSK3β kinase assay; format: biochemical; details: from dose-response curve, FIG. 4C; read-out: IC50, in vitro GSK3β activity
Method: GSK3β kinase assay. GSK3β (human) was incubated with 8 mM MOPS (pH 7.0), 0.2 mM EDTA, 20 μM […](p) EDEEE (phospho-GS2 peptide) (SEQ ID NO. 37), 10 mM Mg acetate, and [γ-33P-ATP] (specific activity approx. 500 cpm/pmol, concentration as required). The reaction was initiated by the addition of the Mg-ATP mixture. After incubation for 40 minutes at room temperature, the reaction was stopped by addition of 3% phosphoric acid solution. 10 μl of the reaction was then spatted onto a P30 filtermat and washed three times for 5 minutes in 50 mM phosphoric acid and once in methanol prior to drying and scintillation counting.

[2] = Toxicity observation during 10 weeks of treatment in mice; format: in vivo
Method: Animals. Cxxc5^−/− mice were established in a previous study. See e.g., Kim H. Y. et al. (2015), CXXC5 is a negative feedback regulator of the Wnt/beta-catenin pathway involved in osteoblast differentiation. CELL DEATH DIFFER 22: 912-920. To manipulate growth plate senescence by estrogen, 3-week-old […] Cxxc5^−/− male mice received weekly intramuscular (i.m.) injections of either 70 μg/kg estradiol (E2) cypionate (Sigma-Aldrich) or vehicle (cottonseed oil) for 3 weeks. To investigate the effects of KY19382 treatment on longitudinal bone growth, C57BL/6 male mice were purchased from KOATECH (Gyeonggido, Korea). KY19382 (0.1 ing/kg) was administered daily by intraperitoneal (i.p.) injection to 3- and 7-week-old mice for 2 weeks or to 3-week-old mice for 10 weeks. For BrdU labeling experiments, mice were i.p. injected with 50 mg/kg BrdU (Sigma-Aldrich) before 24 hours to sacrifice. […]
Radiographic and histochemical analyses. […] For fluorescence staining, the sections were incubated with primary antibody at 4° C. overnight, followed by incubation with anti-mouse Alexa Fluor 488 (ThermoFisher Scientific, A11008; 1:200) or anti-rabbit Alex Fluor 555 (ThermoFisher Scientific, A21428; 1:200) secondary antibodies at room temperature for 1 hour. […]

CXXC5-DVL interaction = biological target: T1, CXXC5-DVL interaction (Homo sapiens, UniProt O14640); assay: In vitro CXXC5-DVL binding assay (FITC-tagged PTD-DBMP on DVL PDZ domain); details: from dose-response curve, FIG. 4B
T1 construct: 5 mg/ml purified DVL PDZ domain was incubated in each well
T1 sequence (O14640 251-323 limits assumed): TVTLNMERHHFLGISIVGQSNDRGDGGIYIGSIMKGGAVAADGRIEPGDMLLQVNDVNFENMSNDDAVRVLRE

Chain of GSK3β (human) (P49841 whole entry): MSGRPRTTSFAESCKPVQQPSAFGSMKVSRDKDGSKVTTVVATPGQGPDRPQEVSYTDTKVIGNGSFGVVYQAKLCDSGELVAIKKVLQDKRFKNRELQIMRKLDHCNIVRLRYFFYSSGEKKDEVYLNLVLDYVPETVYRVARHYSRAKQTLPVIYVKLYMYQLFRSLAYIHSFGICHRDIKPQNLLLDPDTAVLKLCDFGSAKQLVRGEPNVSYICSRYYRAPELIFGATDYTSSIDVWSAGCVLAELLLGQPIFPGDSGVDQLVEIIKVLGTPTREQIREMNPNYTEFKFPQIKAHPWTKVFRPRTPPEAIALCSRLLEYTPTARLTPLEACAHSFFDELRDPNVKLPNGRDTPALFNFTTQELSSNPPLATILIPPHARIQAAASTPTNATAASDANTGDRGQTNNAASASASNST

Row | Compound | tibial length [1] | IC50 (GSK3β (human)) | histological abnormalities in articular cartilage and liver tissues ([2]; 0.1 mg/kg daily for 10 weeks) | weight during treatment ([2]; 0.1 mg/kg daily, 10 weeks of treatment, vs vehicle) | IC50 (CXXC5-DVL interaction)
1 | 17β-estradiol [Compound E2] | reduced |  |  |  | 
2 | CO/N=C1/C(=C2/C(=O)Nc3cc(Cl)c(Cl)cc32)Nc2ccccc21 [KY19382, 5,6-dichloroindirubin-3′-methoxime] |  | 10 nM | no histological abnormalities | no difference | 19 nM
